Key:
[1] = test system: BT-549 cells; assay: Expression (qRT-PCR, immunoblot) in treated BT-549 TNBC cells; type: cell-based, human; details: vs vehicle
Protocol: (§1) Cell culture. Human BT-549, SUM-159 and mouse Eo771 TNBC cells were propagated in RPMI1640 medium (ATCC, Manassas, Va., USA). Human MDA-MB-468 and MDA-MB-231 TNBC cells were cultured in Dulbecco's modified Eagle's medium (DMEM) (Corning, Manassas, Va., USA). Human BT-20 TNBC cells were cultured in Eagle's Minimum Essential Medium (EMEM) (ATCC). Media were supplemented with 10% heat-inactivated fetal bovine serum, 100 units/ml penicillin, and 100 μg/ml streptomycin. Authentication of the cells was performed by short tandem repeat (STR) analysis. Cells were monitored for Mycoplasma contamination by MycoAlert® Mycoplasma Detection Kit (Lonza, Rockland, Mass., USA). BT-549 and MDA-MB-231 cells were transfected with lentiviral vectors to stably express a scrambled control shRNA (CshRNA; Sigma, St. Louis, Mo., USA) and a NF-κB p65 shRNA (Sigma). Human BT-20 and mouse Eo771 cells were stably transfected to express an empty vector or one encoding MUC1-C. […]
(§2) Quantitative real-time, reverse transcriptase PCR (qRT-PCR). […]
(§3) Immunoblot analysis. […] Immunoreactive complexes were detected using horseradish peroxidase-conjugated secondary antibodies (GE Healthcare Life Sciences, Marlborough, Mass., USA) and an enhanced chemiluminescence (ECL) detection reagents (Perkin Elmer Health Sciences, Waltham, Mass., USA). […] Lysates were analyzed using the Lightswitch Luciferase Assay Kit (Active Motif).

[2] = test system: H1975 cells; assay: Gene expression (qRT-PCR) in treated H1975 NSCLC cells; type: cell-based, human; details: 5 μM BAY-11-7085, 18 h, vs DMSO
Protocol: (§4) Cell culture. Human A549/KRAS(G12S), H460/KRAS(Q61H) and H1975/EGFR(L858R/T790M) NSCLC cells (ATCC) were grown in RPMI1640 medium supplemented with 10% heat-inactivated fetal bovine serum (HI-FBS), 100 μg/ml streptomycin, 100 units/ml penicillin and 2 mM L-glutamine. Authentication of the cells was performed by short tandem repeat (STR) analysis. Cells were transfected with lentiviral vectors to stably express a scrambled control shRNA (CshRNA; Sigma), a MUC1 shRNA (MUC1shRNA; Sigma), a NF-κB p65 shRNA (Sigma), MUC1-C or MUC1-C (AQA) (27, 8, 49). Cells were treated with the IκB inhibitor BAY-11-7085 (Sigma) or DMSO as the vehicle control. Cells were also treated with empty nanoparticles (NPs) or GO-203/NPs (39).
(§5) Quantitative real-time, reverse transcriptase PCR (qRT-PCR). Whole cell RNA was isolated using the RNeasy mini kit (Qiagen). The High Capacity cDNA Reverse Transcription kit (Life Technologies) was used to synthesize cDNAs from 2 μg RNA. The SYBR green qPCR assay kit and the ABI Prism Sequence Detector (Applied Biosystems) were used to amplify the cDNAs.
(§6) Immunoblot analysis. Whole cell lysates were prepared in NP-40 lysis buffer and immunoblotted with antibodies against MUC1-C (LabVision), PD-L1 (Cell Signaling Technology) and β-actin (Sigma). Horseradish peroxidase secondary antibodies and enhanced chemiluminescence (GE Healthcare) were used for the detection of immune complexes.

[3] = test system: Eo771/MUC1-C cells; assay: Expression (qRT-PCR, immunoblot) in treated Eo771/MUC1-C cells; type: cell-based, mouse; details: vs vehicle
Protocol: as §1, §2, §3

[4] = test system: H460 cells; assay: Gene expression (qRT-PCR) in treated H460 NSCLC cells; type: cell-based, human; details: 5 μM BAY-11-7085, 18 h, vs DMSO
Protocol: as §4, §5, §6

[5] = test system: BT-20/MUC1-C cells; assay: Expression (qRT-PCR, immunoblot) in treated BT-20/MUC1-C cells; type: cell-based, human; details: vs vehicle
Protocol: as §1, §2, §3

| Compound | PD-L1 expression ([1]; 5 μM BAY-11-7085, 24 h) | PD-L1 expression (mRNA, qRT-PCR) [2] | TLR7 mRNA levels [2] | MUC1-C→PD-L1 response (PD-L1 mRNA and protein) ([3]; 5 μM BAY-11-7085, 24 h) | PD-L1 expression (mRNA, qRT-PCR) [4] | TLR7 mRNA levels [4] | PD-L1 expression ([5]; 5 μM BAY-11-7085, 24 h) | PD-L1 expression ([1]; 5 μM JQ1, 48 h) | MUC1-C→PD-L1 response (PD-L1 mRNA and protein) ([3]; 5 μM JQ1, 48 h) | PD-L1 expression ([5]; 5 μM JQ1, 48 h) |
| --- | --- | --- | --- | --- | --- | --- | --- | --- | --- | --- |
| CC(C)(C)c1ccc(S(=O)(=O)/C=C/C#N)cc1 [BAY-11-7085] | suppression of PD-L1 expression | suppresses PD-L1 expression | decreases in TLR7 mRNA levels | inhibited | suppresses PD-L1 expression | decreases in TLR7 mRNA levels | suppression of PD-L1 expression |  |  |  |
| Cc1sc2c(c1C)C(c1ccc(Cl)cc1)=N[C@@H](CC(=O)OC(C)(C)C)c1nnc(C)n1-2 [JQ1] |  |  |  |  |  |  |  | downregulation of PD-L1 expression | inhibited | downregulation of PD-L1 expression |

Reference: patent publication US20200056174A1, “COMPOSITIONS AND METHODS OF TREATING CANCER” (DANA-FARBER CANCER INSTITUTE, INC., priority 2016, published 2020)
